Source: ChEMBL document CHEMBL1201862, “PubChem BioAssay data set” (2004)
Active and inactive are the calls of the source.

Columns and labels:
[1] = inhibition of ARNT PAS-B/TACC3 complex formation – biochemical, AlphaScreen, cherry-picked samples, confirmation (AID 651703); type: functional, Homo sapiens;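 also: His-tagged ARNT PAS-B domain paired with GST-TACC3 E629A dimer coactivator fragment; potency of inhibitors that break up the complex and lower AlphaScreen signal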
[2] = target: Adenosylmethionine-8-amino-7-oxononanoate aminotransferase (Mycobacterium tuberculosis, UniProt P9WQ81); assay: Mycobacterium tuberculosis BioA enzyme inhibitor Measured in Biochemical System Using Plate Reader - 2163-02_Inhibitor_Dose_CherryPick_Activity.; type: functional, Mycobacterium tuberculosis UT205
Chain of Adenosylmethionine-8-amino-7-oxononanoate aminotransferase (P9WQ81 whole entry): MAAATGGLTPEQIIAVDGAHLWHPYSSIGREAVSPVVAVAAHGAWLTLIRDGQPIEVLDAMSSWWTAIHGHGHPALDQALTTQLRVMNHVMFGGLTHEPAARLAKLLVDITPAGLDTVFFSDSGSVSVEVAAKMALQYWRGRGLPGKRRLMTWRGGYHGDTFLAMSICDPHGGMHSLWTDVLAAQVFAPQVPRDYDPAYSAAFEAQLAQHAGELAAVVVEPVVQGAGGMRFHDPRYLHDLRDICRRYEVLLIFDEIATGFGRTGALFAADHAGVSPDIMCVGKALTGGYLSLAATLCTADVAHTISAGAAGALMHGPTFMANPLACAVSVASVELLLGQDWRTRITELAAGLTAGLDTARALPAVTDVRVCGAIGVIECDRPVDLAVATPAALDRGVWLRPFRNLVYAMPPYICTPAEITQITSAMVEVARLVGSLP

[3] = target: T1, Tyrosyl-DNA phosphodiesterase 2 (Homo sapiens, UniProt O95551); assay: potency against TDP2 phosphodiesterase activity – biochemical, epi absorbance, IC50, dose response (AID 743297)
T1 sequence (O95551 whole entry): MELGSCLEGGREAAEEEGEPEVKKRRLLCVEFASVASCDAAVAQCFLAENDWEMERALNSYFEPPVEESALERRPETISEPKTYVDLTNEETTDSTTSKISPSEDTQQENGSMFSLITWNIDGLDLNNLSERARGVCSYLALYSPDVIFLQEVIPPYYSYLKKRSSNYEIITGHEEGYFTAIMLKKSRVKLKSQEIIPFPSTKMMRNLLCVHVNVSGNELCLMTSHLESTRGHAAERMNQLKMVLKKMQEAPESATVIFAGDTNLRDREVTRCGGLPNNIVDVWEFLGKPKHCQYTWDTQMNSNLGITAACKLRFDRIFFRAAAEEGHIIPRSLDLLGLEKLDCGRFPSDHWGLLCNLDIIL

Hexokinase HKDC1 = target: T2, Hexokinase HKDC1 (Homo sapiens, UniProt Q2TB90); assay: inhibition of HKDC1 glucose phosphorylation – biochemical, W721R variant, dose response (AID 504729); type: functional
T2 sequence (Q2TB90 whole entry): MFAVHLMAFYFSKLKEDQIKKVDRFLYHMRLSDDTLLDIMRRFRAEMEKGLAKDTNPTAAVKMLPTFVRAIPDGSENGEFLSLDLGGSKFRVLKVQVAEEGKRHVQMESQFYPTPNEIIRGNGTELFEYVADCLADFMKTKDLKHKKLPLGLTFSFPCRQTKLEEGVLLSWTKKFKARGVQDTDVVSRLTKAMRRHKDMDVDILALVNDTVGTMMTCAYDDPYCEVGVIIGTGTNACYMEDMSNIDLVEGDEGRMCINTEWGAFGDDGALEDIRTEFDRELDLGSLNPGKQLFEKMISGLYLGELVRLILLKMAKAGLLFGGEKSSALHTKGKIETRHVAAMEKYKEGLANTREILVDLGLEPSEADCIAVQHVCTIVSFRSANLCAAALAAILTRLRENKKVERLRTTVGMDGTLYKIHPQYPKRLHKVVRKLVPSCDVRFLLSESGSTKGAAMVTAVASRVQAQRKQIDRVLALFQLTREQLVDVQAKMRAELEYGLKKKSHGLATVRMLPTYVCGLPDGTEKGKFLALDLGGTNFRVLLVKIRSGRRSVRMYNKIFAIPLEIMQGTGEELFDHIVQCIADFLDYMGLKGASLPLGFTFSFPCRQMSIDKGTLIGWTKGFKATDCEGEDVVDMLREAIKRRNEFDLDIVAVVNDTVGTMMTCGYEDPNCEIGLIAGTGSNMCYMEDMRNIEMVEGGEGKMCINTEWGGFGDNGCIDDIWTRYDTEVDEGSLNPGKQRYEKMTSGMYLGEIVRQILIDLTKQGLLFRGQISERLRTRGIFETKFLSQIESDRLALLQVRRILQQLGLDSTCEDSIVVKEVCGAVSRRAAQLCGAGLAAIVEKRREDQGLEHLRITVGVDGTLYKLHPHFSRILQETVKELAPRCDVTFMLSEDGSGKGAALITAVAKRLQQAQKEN

Vero = assay: viability of Vero cells under compound – cytotoxicity control for flavivirus capping enzyme inhibitors (AID 588742); type: functional; settings: Chlorocebus sabaeus
Genome polyprotein = Genome polyprotein (dengue virus type 2, UniProt P29990); assay: flavivirus cap methylation enzyme inhibition – biochemical, confirmation dose response, primary screen (AID 588689); type: functional
Chain of Genome polyprotein (P29990 2492-3391 limits assumed): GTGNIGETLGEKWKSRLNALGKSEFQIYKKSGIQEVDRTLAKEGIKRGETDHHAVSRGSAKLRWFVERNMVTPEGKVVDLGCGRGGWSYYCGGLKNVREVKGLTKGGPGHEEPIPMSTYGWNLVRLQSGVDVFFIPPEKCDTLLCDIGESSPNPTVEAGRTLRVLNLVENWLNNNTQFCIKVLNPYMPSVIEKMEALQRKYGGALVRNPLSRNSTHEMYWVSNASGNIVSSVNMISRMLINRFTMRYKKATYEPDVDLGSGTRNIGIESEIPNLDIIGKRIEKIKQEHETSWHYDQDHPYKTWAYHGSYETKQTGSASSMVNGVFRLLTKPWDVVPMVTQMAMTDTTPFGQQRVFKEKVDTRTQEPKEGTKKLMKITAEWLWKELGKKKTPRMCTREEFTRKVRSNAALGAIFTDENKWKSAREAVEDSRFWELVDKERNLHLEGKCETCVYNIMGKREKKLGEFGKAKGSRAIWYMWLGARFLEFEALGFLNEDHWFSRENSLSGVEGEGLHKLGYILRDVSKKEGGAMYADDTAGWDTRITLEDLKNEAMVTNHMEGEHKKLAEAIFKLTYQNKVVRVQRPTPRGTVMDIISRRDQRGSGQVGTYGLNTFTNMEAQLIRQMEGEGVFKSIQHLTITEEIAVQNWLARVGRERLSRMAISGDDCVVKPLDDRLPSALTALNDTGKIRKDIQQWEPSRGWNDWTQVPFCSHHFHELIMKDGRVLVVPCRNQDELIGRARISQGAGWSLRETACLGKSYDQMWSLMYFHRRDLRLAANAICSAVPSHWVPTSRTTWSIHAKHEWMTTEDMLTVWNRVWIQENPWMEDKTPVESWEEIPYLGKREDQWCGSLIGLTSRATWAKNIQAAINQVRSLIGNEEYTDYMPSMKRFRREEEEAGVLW

[4] = target: DNA (cytosine-5)-methyltransferase 1 (Homo sapiens, UniProt P26358); assay: inhibition of DNA methylation by DNMT1 – biochemical, fluorescent molecular beacon, confirmation (AID 602386); type: functional
Chain of DNA (cytosine-5)-methyltransferase 1 (P26358 whole entry): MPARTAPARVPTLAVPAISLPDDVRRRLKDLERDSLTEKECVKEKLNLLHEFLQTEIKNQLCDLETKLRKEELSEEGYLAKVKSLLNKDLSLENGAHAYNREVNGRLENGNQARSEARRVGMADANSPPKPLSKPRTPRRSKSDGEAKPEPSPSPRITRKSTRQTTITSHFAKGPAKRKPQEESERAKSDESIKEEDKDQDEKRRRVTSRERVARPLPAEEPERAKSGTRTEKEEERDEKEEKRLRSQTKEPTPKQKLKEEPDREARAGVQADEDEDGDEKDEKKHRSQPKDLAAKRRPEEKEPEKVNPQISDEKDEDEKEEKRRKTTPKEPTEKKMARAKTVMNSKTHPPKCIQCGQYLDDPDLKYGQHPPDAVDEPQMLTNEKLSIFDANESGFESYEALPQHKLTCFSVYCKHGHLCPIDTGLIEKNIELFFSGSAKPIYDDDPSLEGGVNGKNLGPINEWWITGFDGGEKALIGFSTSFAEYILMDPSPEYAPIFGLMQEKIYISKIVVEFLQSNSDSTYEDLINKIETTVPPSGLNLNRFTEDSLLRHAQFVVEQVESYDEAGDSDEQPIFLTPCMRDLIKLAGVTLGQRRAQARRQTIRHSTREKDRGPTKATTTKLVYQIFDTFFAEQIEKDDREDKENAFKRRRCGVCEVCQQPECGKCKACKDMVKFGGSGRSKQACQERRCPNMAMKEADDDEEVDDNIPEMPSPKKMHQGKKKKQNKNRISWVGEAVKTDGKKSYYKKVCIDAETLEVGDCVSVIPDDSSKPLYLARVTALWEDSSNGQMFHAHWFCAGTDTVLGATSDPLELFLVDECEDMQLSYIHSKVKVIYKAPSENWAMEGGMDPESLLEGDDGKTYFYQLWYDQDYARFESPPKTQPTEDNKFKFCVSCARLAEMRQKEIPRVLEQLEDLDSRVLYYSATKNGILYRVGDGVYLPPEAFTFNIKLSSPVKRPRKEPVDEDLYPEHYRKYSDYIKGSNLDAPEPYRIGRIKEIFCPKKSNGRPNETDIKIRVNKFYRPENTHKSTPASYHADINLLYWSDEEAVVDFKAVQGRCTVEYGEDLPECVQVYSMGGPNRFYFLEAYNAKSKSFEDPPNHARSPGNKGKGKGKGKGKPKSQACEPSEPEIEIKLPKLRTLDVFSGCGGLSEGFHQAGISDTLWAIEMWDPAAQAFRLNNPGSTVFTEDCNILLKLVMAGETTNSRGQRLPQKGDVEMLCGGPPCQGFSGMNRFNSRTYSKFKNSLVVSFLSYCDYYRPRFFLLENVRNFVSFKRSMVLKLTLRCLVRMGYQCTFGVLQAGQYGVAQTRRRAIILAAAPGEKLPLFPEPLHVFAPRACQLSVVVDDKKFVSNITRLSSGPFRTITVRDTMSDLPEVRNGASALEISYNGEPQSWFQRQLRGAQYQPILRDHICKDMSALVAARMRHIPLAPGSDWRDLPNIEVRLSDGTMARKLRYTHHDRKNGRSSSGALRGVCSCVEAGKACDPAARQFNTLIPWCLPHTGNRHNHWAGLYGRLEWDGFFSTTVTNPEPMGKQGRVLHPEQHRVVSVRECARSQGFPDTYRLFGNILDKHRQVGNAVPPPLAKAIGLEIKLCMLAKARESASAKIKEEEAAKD

[5] = target: T3, Rac GTPase-activating protein 1 (Homo sapiens, UniProt Q9H0H5); assay: blockers of MgcRacGAP-driven Rac1 GTP hydrolysis – biochemical, ADP Hunter fluorescence, primary and confirmatory, confirmation (AID 624330); type: functional
T3 sequence (Q9H0H5 whole entry): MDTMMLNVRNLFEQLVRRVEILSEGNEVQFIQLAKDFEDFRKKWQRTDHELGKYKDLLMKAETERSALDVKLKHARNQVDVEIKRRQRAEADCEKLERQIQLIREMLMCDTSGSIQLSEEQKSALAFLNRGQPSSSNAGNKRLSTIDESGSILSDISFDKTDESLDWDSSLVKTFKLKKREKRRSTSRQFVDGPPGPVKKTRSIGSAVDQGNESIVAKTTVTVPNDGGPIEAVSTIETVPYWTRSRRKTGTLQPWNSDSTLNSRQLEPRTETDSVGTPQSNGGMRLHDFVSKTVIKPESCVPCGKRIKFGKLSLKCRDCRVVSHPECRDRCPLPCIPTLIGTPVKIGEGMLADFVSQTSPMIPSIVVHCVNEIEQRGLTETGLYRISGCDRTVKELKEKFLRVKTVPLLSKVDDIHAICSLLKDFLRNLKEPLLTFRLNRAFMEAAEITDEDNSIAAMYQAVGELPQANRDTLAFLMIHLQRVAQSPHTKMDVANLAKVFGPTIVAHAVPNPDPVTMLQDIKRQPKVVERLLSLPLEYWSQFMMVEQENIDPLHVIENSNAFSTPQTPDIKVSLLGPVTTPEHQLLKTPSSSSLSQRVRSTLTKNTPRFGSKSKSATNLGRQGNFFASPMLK

[6] = viability loss in THP-1 monocytes – THP-1 cells, cytotoxicity control for Vif-APOBEC3G degradation inhibitor project, dose response (AID 1117359); type: functional; settings: THP-1
Phospholipase D2 = Phospholipase D2 (Homo sapiens, UniProt O14939); assay: cellular phospholipase D2 inhibition IC50 – cell-based, dose response (AID 602147); type: functional;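 also: cellular assay in HEK293 cells overexpressing GFP-tagged PLD2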
Chain of Phospholipase D2 (O14939 whole entry): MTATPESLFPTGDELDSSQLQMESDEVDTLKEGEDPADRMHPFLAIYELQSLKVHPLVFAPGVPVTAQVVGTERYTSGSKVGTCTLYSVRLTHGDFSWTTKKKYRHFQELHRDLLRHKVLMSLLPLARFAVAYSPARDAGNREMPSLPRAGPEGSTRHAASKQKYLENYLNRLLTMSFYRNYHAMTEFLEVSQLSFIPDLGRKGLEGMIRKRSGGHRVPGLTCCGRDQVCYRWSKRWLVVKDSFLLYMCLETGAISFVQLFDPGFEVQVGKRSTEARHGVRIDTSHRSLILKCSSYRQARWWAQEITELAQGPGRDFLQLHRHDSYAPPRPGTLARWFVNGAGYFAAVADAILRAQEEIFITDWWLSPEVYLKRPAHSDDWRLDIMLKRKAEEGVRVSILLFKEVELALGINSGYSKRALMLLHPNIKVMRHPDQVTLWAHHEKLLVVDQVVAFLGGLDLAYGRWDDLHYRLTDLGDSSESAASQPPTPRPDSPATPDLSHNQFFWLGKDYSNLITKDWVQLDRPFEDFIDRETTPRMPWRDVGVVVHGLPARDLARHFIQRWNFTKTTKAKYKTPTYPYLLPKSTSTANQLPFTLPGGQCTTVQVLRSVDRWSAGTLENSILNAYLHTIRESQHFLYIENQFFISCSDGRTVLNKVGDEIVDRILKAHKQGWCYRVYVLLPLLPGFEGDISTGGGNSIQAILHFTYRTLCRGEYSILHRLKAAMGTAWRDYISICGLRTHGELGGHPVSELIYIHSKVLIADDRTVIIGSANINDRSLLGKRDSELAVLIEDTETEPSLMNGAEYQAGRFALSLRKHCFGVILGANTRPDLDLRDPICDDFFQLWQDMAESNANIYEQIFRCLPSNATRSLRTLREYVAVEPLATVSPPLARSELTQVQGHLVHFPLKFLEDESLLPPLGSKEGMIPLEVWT

Phospholipase D1 = target: T4, Phospholipase D1 (Homo sapiens, UniProt Q13393); assay: cellular phospholipase D1 inhibition IC50 – cell-based, dose response (AID 602151); type: functional;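 also: cellular PLD1 assay in Calu-1 cells stimulated with PMA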
T4 sequence (Q13393 whole entry): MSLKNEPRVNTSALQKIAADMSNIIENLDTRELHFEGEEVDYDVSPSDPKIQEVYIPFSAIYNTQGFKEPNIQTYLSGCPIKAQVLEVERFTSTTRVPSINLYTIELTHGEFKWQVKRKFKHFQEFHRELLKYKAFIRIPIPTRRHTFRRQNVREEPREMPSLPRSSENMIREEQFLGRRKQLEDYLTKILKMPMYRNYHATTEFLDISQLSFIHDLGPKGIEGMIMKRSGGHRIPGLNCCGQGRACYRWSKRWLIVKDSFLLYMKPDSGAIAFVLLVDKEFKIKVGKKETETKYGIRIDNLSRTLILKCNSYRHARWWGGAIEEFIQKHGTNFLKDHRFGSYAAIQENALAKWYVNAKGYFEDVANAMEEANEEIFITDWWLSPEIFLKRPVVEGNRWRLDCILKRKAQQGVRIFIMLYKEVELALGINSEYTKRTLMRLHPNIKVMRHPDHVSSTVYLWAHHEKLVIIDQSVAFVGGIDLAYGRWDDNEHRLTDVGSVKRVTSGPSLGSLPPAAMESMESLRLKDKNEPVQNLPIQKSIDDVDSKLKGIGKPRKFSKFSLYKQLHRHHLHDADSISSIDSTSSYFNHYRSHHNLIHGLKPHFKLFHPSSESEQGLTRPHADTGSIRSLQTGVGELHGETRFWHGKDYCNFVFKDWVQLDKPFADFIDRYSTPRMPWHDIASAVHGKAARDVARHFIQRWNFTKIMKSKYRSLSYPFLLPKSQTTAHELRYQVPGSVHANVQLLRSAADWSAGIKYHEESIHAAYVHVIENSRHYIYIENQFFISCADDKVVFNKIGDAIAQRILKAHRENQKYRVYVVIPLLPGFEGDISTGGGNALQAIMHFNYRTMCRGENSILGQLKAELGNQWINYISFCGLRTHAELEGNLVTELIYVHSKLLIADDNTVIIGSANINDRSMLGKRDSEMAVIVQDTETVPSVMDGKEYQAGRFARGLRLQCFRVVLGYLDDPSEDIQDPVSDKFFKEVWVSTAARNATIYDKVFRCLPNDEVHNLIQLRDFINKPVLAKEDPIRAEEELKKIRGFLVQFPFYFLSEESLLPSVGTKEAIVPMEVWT

Q: For `CCOc1ccc(-c2cnc(N)n2C)cc1`, which AC50 [1] is on record?
A: 93.9 µM (active)

Q: Which AC50 [2] does the source give for `Cc1cccc(-c2nnc(SCC#N)n2-c2ccccc2)c1` here?
A: 3.22 µM (active)

Q: Which IC50 [3] does the source give for `Cc1ccc(-n2c3nc(=O)[nH]c(=O)c-3cc3cc([N+](=O)[O-])ccc32)cc1` here?
A: > 128 µM (inactive)

Q: And the IC50 (Hexokinase HKDC1)?
A: 10.3 µM (active)

Q: What about the CC50 (Vero) of the same molecule?
A: > 40 µM (active)

Q: What about the IC50 (Genome polyprotein) of the same molecule?
A: 22.9 µM (active)

Q: Which results are given for `COc1cc(/C=C/C=C2/CC/C(=C/C=C/c3ccc(O)c(OC)c3)C2=O)ccc1O`?
A: IC50 [4]: 8.22 µM (active); IC50 [5]: 99.4 µM (active); CC50 [6]: 24.1 µM (active)

Q: With `O=C(c1ccc(Cl)cc1)N(CCN1CCC(n2c(=O)[nH]c3ccccc32)CC1)C(=O)c1ccc(Cl)cc1` as the molecule, how does the IC50 (Phospholipase D2) read?
A: 2.7 µM (active)

Q: What about the IC50 (Phospholipase D1) of the same molecule?
A: 0.21 µM (active)

Q: What does the source list for `O=C(NCCN1CCC2(CC1)C(=O)NCN2c1cccc(Br)c1)c1ccc2ccccc2c1`?
A: IC50 (Phospholipase D2): 0.68 µM (active); IC50 (Phospholipase D1): 4.6 µM (active)

Q: Which results are given for `O=C(NCCN1CCC(n2c(=O)[nH]c3ccccc32)CC1)NCc1cccc(F)c1`?
A: IC50 (Phospholipase D2): 1.8 µM (active); IC50 (Phospholipase D1): 0.107 µM (active)
